Reference: patent US20130315843A1, “COMPOSITION FOR REDUCTION OF TRPA1 AND TRPV1 SENSATIONS” (priority 2012, published 2013)
“And” between values parts separate entries of the source, which are not always exact repeats. Equal values may be shown once. Read-outs that look alike come from different tables or passages of the source.

What was measured:
human TRPV1 [1] = target: T1, human TRPV1 (Homo sapiens, UniProt Q8NER1); assay: FLIPR Ca2+ assay, reduction of capsaicin activation of TRPV1; type: cell-based; design: expressed in transfected cells; conditions: with compound
Experimental: (§1) Cells were detached with addition of 10 ml of PBS (phosphate buffered saline) by hand shaking gently. Cells were transferred to a 50 ml tube and centrifuged at 850 rpm for 3 minutes to remove PBS.
The pelleted cells were re-suspended in 10 ml assay buffer and 90 μl aliquots (˜50,000 cells) per well delivered to a 96-well assay plate containing 10 μl of test compounds ([…]) or buffer control and incubated at room temperature for 30 minutes.

human TRPA1 = human TRPA1 (Homo sapiens, UniProt O75762); assay: FLIPR intracellular Ca2+ assay, direct (agonist) effect on TRPA1; type: cell-based; design: expressed in transfected cells; conditions: for percent hydrogen peroxide activation of TRPA1 compared to control agonist: control 50 μM AITC
Experimental: After centrifugation, a pellet of cells was formed in the bottom of the tube separating them from the supernatant solution.
(§2) The pelleted cells were re-suspended in 10 ml assay buffer and 90 μl aliquots (˜50,000 cells) per well delivered to a 96-well assay plate containing 10 μl of test compounds (1 mM in assay buffer, final concentration 100 μM) or buffer control and incubated at room temperature for 30 minutes.

human TRPV1 [2] = target: T1, human TRPV1; assay: FLIPR Ca2+ assay, reduction of hydrogen peroxide activation of TRPV1; type: cell-based; design: expressed in transfected cells; conditions: for inhibition at 400 µM: antagonist 400 μM against 500 μM hydrogen peroxide; for Ca++ counts: with compound
human TRPV1 [3] = target: T1, human TRPV1; conditions: for percent hydrogen peroxide activation of TRPV1 compared to control agonist: control 350 nM capsaicin
Experimental: as §1, §2

[4] = concentration where the cooling effect can be clearly recognized; cited from earlier work

Chain of human TRPA1 (O75762 whole entry): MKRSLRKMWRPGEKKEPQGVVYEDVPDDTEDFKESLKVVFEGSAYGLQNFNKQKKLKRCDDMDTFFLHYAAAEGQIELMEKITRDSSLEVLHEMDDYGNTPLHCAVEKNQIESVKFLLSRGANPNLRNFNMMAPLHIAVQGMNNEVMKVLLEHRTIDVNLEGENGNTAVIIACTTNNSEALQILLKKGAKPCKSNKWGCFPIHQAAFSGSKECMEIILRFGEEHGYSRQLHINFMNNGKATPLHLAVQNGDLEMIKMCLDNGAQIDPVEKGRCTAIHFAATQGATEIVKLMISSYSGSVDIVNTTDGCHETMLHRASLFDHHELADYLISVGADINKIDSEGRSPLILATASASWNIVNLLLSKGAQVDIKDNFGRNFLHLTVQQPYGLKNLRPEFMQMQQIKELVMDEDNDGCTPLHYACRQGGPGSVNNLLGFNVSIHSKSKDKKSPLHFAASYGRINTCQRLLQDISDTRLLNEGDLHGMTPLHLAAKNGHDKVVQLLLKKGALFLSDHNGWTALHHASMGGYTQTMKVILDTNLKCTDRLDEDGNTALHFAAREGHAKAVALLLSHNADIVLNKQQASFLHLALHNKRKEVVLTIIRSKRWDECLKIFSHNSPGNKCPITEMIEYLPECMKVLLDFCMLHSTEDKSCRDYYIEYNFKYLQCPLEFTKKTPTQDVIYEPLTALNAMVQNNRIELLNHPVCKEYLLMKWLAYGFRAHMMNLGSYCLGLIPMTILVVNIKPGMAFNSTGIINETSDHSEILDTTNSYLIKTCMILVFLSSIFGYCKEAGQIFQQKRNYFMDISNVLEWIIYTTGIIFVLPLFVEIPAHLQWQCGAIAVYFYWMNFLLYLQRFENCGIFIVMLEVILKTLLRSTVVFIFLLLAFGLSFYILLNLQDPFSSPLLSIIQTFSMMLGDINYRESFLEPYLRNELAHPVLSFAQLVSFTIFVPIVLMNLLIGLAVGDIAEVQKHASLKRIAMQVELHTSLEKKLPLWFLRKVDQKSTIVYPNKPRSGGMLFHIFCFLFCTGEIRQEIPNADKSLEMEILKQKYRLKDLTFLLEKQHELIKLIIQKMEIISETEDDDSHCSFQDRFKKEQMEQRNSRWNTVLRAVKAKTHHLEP
T1 sequence (Q8NER1 whole entry): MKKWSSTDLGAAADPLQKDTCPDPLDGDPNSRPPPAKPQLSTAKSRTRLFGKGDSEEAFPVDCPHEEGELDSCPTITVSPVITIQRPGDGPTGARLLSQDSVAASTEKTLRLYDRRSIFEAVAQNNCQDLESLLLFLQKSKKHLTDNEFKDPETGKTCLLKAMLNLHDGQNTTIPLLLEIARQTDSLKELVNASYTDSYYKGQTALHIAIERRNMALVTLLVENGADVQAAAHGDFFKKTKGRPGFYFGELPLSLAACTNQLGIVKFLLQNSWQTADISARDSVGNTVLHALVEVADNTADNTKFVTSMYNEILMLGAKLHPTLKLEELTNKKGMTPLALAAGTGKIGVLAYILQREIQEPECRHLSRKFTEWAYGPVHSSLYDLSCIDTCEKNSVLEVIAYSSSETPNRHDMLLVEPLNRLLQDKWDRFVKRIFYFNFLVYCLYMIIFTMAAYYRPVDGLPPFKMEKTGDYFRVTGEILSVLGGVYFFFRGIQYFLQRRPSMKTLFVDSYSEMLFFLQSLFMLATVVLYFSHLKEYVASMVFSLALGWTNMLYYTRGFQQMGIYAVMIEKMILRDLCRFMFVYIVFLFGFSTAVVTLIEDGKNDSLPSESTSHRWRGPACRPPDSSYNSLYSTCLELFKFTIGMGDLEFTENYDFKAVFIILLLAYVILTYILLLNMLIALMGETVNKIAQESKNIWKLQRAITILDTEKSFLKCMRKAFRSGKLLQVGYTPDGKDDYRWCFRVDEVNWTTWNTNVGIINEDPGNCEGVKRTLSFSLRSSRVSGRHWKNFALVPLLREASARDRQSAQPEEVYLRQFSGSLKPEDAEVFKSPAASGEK

**Q.** Which “Ca++ counts” value (human TRPV1 [1]; Dose 4000, 350 nM Capsaicin) does the source give for `CC(C)C(=O)OCc1ccc2c(c1)OCO2` [Piperonyl Isobutyrate] here?
**A.** The value was 10804.

**Q.** What about the “effect on TRPA1 receptor, in words (agonist / enhancer)” value (from here on “effect … (agonist / enhancer)”) (human TRPA1) of the same compound?
**A.** Its value is “enhancer of TRPA1”.

**Q.** And the “reduction of hydrogen peroxide activation of TRPV1, in words” value (from here on “reduction”) (human TRPV1 [2])?
**A.** The value was “reduces hydrogen peroxide activation of TRPV1”.

**Q.** What about the inhibition at 400 µM (human TRPV1 [2]) of the same compound?
**A.** The inhibition at 400 µM was 63%.

**Q.** What about the “Ca++ counts” value (human TRPV1 [2]; Dose 4000, 500 uM H2O2) of the same compound?
**A.** Its value is 682.

**Q.** For `COc1cc(CNC(=O)CCCC/C=C/C(C)C)ccc1O` [Capsaicin], which “Ca2+ Count, TRPV1” value (human TRPV1 [3]; control agonist Capsaicin 350 nM) is on record?
**A.** Its value is 16204 Count.

**Q.** With `CC(=O)OC1CC2CCC1(C)C2(C)C` (single isomer, unassigned; (-)) [(−)-Bornyl Acetate] as the compound, how does the “Ca++ counts” value (human TRPV1 [1]; Dose 1000, 350 nM Capsaicin) read?
**A.** Its value is 13976.

**Q.** What about the “effect … (agonist / enhancer)” value (human TRPA1) of the same compound?
**A.** Its value is “TRPA1 agonists”.

**Q.** What about the “reduction” value (human TRPV1 [2]) of the same compound?
**A.** Its value is “reduce hydrogen peroxide activation of TRPV1”.

**Q.** And the inhibition at 100 µM (human TRPV1 [2]; antagonist 100 μM against 500 μM hydrogen peroxide)?
**A.** Its inhibition at 100 µM is 53%.

**Q.** What about the “Ca++ counts” value (human TRPV1 [2]; Dose 1000, 500 uM H2O2) of the same compound?
**A.** Its value is 877.

**Q.** Which cooling threshold [4] does the source give for `CC(C)[C@@H]1CC[C@@H](C)C[C@@H]1O` [1-neomenthol] here?
**A.** Its cooling threshold is “about 3,000 ppb”.

**Q.** With `CC(C)[C@@H]1CC[C@@H](C)C[C@@H]1O` [d-neomenthol] as the compound, how does the cooling threshold [4] read?
**A.** Its cooling threshold is “about 25,000 ppb”.

**Q.** What does the source list for `OO` [H2O2, hydrogen peroxide]?
**A.** percent hydrogen peroxide activation of TRPA1 compared to control agonist (human TRPA1; H2O2 1 μM): 1.4%; percent hydrogen peroxide activation of TRPA1 compared to control agonist (human TRPA1; H2O2 10 μM): 9.6%; percent hydrogen peroxide activation of TRPA1 compared to control agonist (human TRPA1; H2O2 100 μM): 91.4%; Average Ca++ Counts (human TRPA1; H2O2 200 μM alone, control of each Set 1-4): 5881.5 Counts and 8721.8 Counts and 10592.2 Counts and 7043.6 Counts; percent hydrogen peroxide activation of TRPA1 compared to control agonist (human TRPA1; H2O2 200 μM): 111.7%; percent hydrogen peroxide activation of TRPA1 compared to control agonist (human TRPA1; H2O2 500 μM): 129.1%; percent hydrogen peroxide activation of TRPA1 compared to control agonist (human TRPA1; H2O2 1 mM): 123.4%; percent hydrogen peroxide activation of TRPA1 compared to control agonist (human TRPA1; H2O2 10 mM): 101.3%; percent hydrogen peroxide activation of TRPA1 compared to control agonist (human TRPA1; H2O2 100 mM): 296.7%; percent hydrogen peroxide activation of TRPV1 compared to control agonist (human TRPV1 [3]; H2O2 1 μM): 1.51%; percent hydrogen peroxide activation of TRPV1 compared to control agonist (human TRPV1 [3]; H2O2 10 μM): 3.10%; percent hydrogen peroxide activation of TRPV1 compared to control agonist (human TRPV1 [3]; H2O2 100 μM): 17.45%; percent hydrogen peroxide activation of TRPV1 compared to control agonist (human TRPV1 [3]; H2O2 200 μM): 21.18%; percent hydrogen peroxide activation of TRPV1 compared to control agonist (human TRPV1 [3]; H2O2 500 μM): 30.21%; percent hydrogen peroxide activation of TRPV1 compared to control agonist (human TRPV1 [3]; H2O2 1 mM): 41.13%; percent hydrogen peroxide activation of TRPV1 compared to control agonist (human TRPV1 [3]; H2O2 10 mM): 62.81%; percent hydrogen peroxide activation of TRPV1 compared to control agonist (human TRPV1 [3]; H2O2 100 mM): 209.29%

**Q.** With `CC(C)[C@@H]1CC[C@@H](C)C[C@H]1O` [L-menthol] as the compound, how does the cooling threshold [4] read?
**A.** The cooling threshold was “about 800 ppb”.

**Q.** For `CCC(=O)OCCOc1ccccc1` [Phenoxyethyl Propionate], which “Ca++ counts” value (human TRPV1 [1]; Dose 4000, 350 nM Capsaicin) is on record?
**A.** Its value is 10922.

**Q.** What about the “effect … (agonist / enhancer)” value (human TRPA1) of the same compound?
**A.** The value was “TRPA1 agonists”.

**Q.** What about the “reduction” value (human TRPV1 [2]) of the same compound?
**A.** The value was “reduce hydrogen peroxide activation of TRPV1”.

**Q.** What about the inhibition at 400 µM (human TRPV1 [2]) of the same compound?
**A.** The inhibition at 400 µM was 60%.

**Q.** What about the “Ca++ counts” value (human TRPV1 [2]; Dose 4000, 500 uM H2O2) of the same compound?
**A.** The value was 737.
